Measured values: article PMC9767854, “Discovery and mechanism studies of a novel ATG4B inhibitor Ebselen by drug repurposing and its anti-colorectal cancer effects in mice” (Cell & Bioscience, 2022)

Assays:
CASP3 = tested on: CASP3; set-up: method as in PMID 23632366, PMID 25468037; settings: cited from earlier work
WT and ATG4B KO HCT116 = assay: Apoptosis detection by cleaved PARP western blot; assay type: cell-based; settings: low or high concentrations of Ebselen; STS 2 μM; 6 h
HeLa cell line = assay: Autophagy flux by LC3B-II western blot in HeLa; assay type: cell-based; settings: Torin 1 2 μM, CQ 40 μM
Procedure: Since ATG4B is a key protein in autophagy, the experiment on the effect of Ebselen on autophagy flux was worth proposing. First of all, we determined the most classic index LC3B for autophagy flux detection in HeLa cell line. […] A, B HeLa cells were treated with Torin 1 (2 μM) or CQ (40 μM) and detected by western blot. C, D SW620 cells were transduced with sgCon and sgATG4B lentiviruses, respectively. Then cells were treated with CQ (40 μM) and detected by western blot. E, F HCT116 were treated with Ebselen (5 and 10 μM) or CQ (40 μM) and subjected to western blot. G, H SW620 were treated with Ebselen (10 μM) or CQ (40 μM) and western blotting was carried out to detect the protein levels. I, J Immunofluorescence analysis of endogenous LC3B in HCT116 treated with Ebselen (10 μM) or CQ (40 μM). Dots numbers for LC3B were derived from counting at least 20 cells and 5 fields from three independent replicated experiments. Bar = 10 μm. K HCT116 cells were treated with 2 μM Torin 1 in the presence or absence of 10 μM Ebselen for 12 h, then the level ratio of long-lived proteins was measured by flow cytometry

For O=c1c2ccccc2sn1-c1ccccc1 [Ebsulfur], which “inhibition on CASP3” value (CASP3) is on record?
The value was “clear inhibition”.

For CN[C@@H]1C[C@H]2O[C@@](C)([C@@H]1OC)n1c3ccccc3c3c4c(c5c6ccccc6n2c5c31)C(=O)NC4 [Staurosporine (STS), Staurosporine], which “apoptosis (cleaved PARP)” value (WT and ATG4B KO HCT116) is on record?
Its value is “generation of apoptosis”.

For CCC(=O)N1CCN(c2ccc(-n3c(=O)ccc4cnc5ccc(-c6cnc7ccccc7c6)cc5c43)cc2C(F)(F)F)CC1 [Torin 1], which “effect on autophagy (LC3B-II accumulation with CQ)” value (HeLa cell line) is on record?
Its value is “autophagy inducer”.
